Structures can show the parent of a compound that is named as a salt.

In data set [1] the test system is human heart organoids. As to the kind of experiment: FlipGFP (active caspase 3) apoptosis reporter fluorescence in heart organoids. The conditions noted are these: 10 μM, 48 hours, Day 28 to Day 30, EMM2/1 organoids.
The test system of data set [2] is human heart organoids. Put plainly: Real time RT-PCR gene expression in heart organoids. Type of data set: cell-based. The conditions noted are these: day 30, EMM2/1 organoids. The procedure: Real time RT-PCR. Organoids were collected at day 20, 21, 23, 25, and 30 and stored in RNAprotect (Qiagen) at −20° C. RNA was extracted using the Qiagen RNEasy Mini Kit according largely to the manufacturer's instructions. Organoids were lysed using the Bead Mill 4 Homogenizer (Fisher Scientific) at speed 2 for 30 seconds. RNA concentration was measured using a NanoDrop One (Thermo Fisher Scientific). A minimum threshold of […] was required to proceed with reverse transcription. cDNA was generated using the Quantitect Reverse Transcription Kit (Qiagen) and stored at −20° C. Primers for real time qPCR were designed using the Primer Quest tool (Integrated DNA Technologies). SYBR Green (Thermo Fisher Scientific) was used as the DNA intercalating dye and the amplifier for the reaction vessel. Real time qPCR was performed using the QuantStudio 5 Real-Time PCR system (Applied Biosystems) using a total reaction volume of 20 μL. Gene expression levels were normalized to HPRT1 expression in each independent sample. Log base 2 fold change values were obtained using the double delta CT method.
(In general: Quantitative PCR measures a nucleic acid by following its amplification.)

The test system of data set [3] is human heart organoids.
The subject of data set [4] is human heart organoids. As to the kind of experiment: Brightfield microscopy of organoid size and beating. It counts as cell-based.
For data set [5], the system named is human heart organoids. As to the kind of experiment: Immunofluorescence, confocal microscopy and image analysis. It counts as cell-based. On the procedure: Immunofluorescence. Human heart organoids were transferred from the round bottom ultra-low attachment 96 well plate to 1.5 mL microcentrifuge tubes (Eppendorf) using a cut 200 μL pipette tip (to increase tip bore diameter as to not disturb the organoid). Organoids were fixed in 4% paraformaldehyde (VWR) in PBS for 30 minutes. Following, organoids were washed using PBS-Glycine (1.5 g/L) three times for 5 minutes each. Organoids were then blocked and permeabilized using a solution containing 10% Donkey Normal Serum (Sigma), 0.5% Triton X-100 (Sigma), and 0.5% BSA (Thermo Fisher Scientific) in PBS on a thermal mixer at 300 rpm at 4° C. overnight. Organoids were then washed 3 times using PBS and incubated with primary antibodies (Table 4) within a solution containing 1% Donkey Normal Serum, 0.5% Triton X-100, and 0.5% BSA in PBS (hereafter termed “Antibody Solution”) on a thermal mixer at 300 rpm at 4° C. for 24 hours.
Following, organoids were washed 3 times for 5 minutes each using PBS. Organoids were then incubated with secondary antibodies (Table 4) in Antibody Solution on a thermal mixer at 300 rpm at 4° C. for 24 hours in the dark. Subsequently, organoids were washed 3 times for 5 minutes each using PBS and mounted on glass microscope slides (Fisher Scientific). 90 μm Polybead Microspheres (Polyscience, Inc.) were placed between the slide and a No. 1.5 coverslip (VWR) to provide support pillars such that the organoids could retain three dimensionality. Organoids were transferred to the glass microscope slides using a cut 200 uL pipette tip and mounted using a clearing solution described previously^153. T-tubule staining was performed using FITC-conjugated Wheat Germ Agglutinin (WGA) lectins (Sigma).
Confocal Microscopy and Image Analysis. […] Images were analyzed using Fiji. […] Thresholds were generated for the equalized image intensity values.
(§1) Ondansetron treatment. Ondansetron hydrochloride (Sigma) was prepared at 200 μM in DMSO and was further diluted in DMEM/F12 ((Dulbecco's Modified Eagle Medium/Nutrient Mixture F-12) before being sterile filtered via a 0.22 μm PVDF filter (Sigma). Ondansetron was applied to heart organoids at final concentrations of 1 μM, 10 μM, and 100 μM in EMM2/1 medium, and was applied from Day 9 to Day 20 of culture. Organoids were collected on Day 30 for analysis.
DEAB and Retinoic Acid treatment. 4-Diethylaminobenzaldehyde (DEAB) (Sigma) was prepared at 1 M in DMSO, diluted further to 10 mM using DMSO, then finally diluted to 1 mM in DMEM/F12. Retinoic Acid (RA) (Sigma) was prepared at 1 M in DMSO, and diluted to 100 μM in DMEM/F12. Diluted solutions of DEAB and RA were sterile filtered via 0.22 μm PVDF filters (Sigma). […] DEAB, RA, and DEAB+RA were applied to heart organoids from Day 20 to Day 30 of culture using the EMM2/1 strategy. Organoids were collected on Day 30 for analysis.

Data set [6] concerns human heart organoids. As to the kind of experiment: Voltage imaging with di-8-ANEPPS. Type of data set: cell-based. The conditions noted are these: 10 and 100 μM conditions. On the procedure:
Voltage imaging. Voltage activity within human heart organoids was assessed using di-8-ANEPPS (Thermo Fisher Scientific). Di-8-ANEPPS was solubilized in DMSO per the manufacturer's instructions. A 15 μM solution of di-8-ANEPPS was prepared in respective medium (Control, MM, EMM1, etc.). Organoids were washed twice using RPMI 1640 basal medium, then di-8-ANEPPS was added at a final concentration of 10 μM and incubated for 30 minutes at 37° C. and 5% CO2. Organoids were then washed twice using their respective medium (Control, MM, EMM1, etc.) and transferred to a chambered coverglass slide (Cellvis) using a cut 200 μL pipette tip. Videos were acquired using a Cellvivo microscope (Olympus) at 100 frames per second over 10 total seconds as an image stack at either 20× magnification (ondansetron) or 100× magnification (maturation electrophysiology). Samples were excited at 465 nm excitation and 630 nm emission was collected. Data was processed using Fiji and Microsoft Excel. Baseline F0 of fluorescence intensity F was calculated using the average of the lowest 50 intensity values in the acquired dataset. Fluorescence change ΔF/F0 was calculated using the same method as with Calcium imaging presented above. APD30 and APD90 were measured from the midpoint of the upstroke until 30% or 90% repolarization, respectively^162.
as §1

[7] abbreviates: 10 μM, Day 20 to Day 30, EMM2/1 organoids.

With `COc1cccc2c1C(=O)c1c(O)c3c(c(O)c1C2=O)C[C@@](O)(C(=O)CO)C[C@@H]3O[C@H]1C[C@H](N)[C@H](O)[C@H](C)O1` [doxorubicin, Doxorubicin hydrochloride], the “FlipGFP fluorescence (apoptosis), positive control” value with human heart organoids [1] is “high levels of fluorescence”.
As to `Cc1nccn1CC1CCc2c(c3ccccc3n2C)C1=O` (stereo not shown) [ondansetron, Ondansetron hydrochloride], the “MYL2 expression relative to Untreated” value in the data set on human heart organoids [2] (10 μM) turned out to be 0.58 fold; in the data set with human heart organoids [2] (100 μM), 0.40 fold. Besides, the “apoptosis (FlipGFP fluorescence)” value in the data set with human heart organoids [3] is listed as “does not contribute to apoptosis”. For the same compound, the “beating of heart organoids over time” value was “most marked loss in cardiac activity” with human heart organoids [4] (100 μM condition) and “progressive loss of beating” with human heart organoids [4] (day 0 to day 30, all concentrations). Moreover, the “MYL2+ area relative to Untreated” value was found to be 0.55 fold with human heart organoids [5] (10 μM, day 9 until day 30, EMM2/1 organoids) and 0.18 fold with human heart organoids [5] (100 μM, day 9 until day 30, EMM2/1 organoids). In addition, the “structural organization of organoids compared to Untreated” value with human heart organoids [5] (100 μM, day 30, EMM2/1 organoids) was “structurally less organized”. For the same compound, the “MYL7+ area” value in the data set with human heart organoids [5] (1, 10 and 100 μM, day 9 until day 30, EMM2/1 organoids) was “remained unchanged”. Further, the “APD30 compared to Untreated” value with human heart organoids [6] is “increased”. Also, in the data set with human heart organoids [6], the “APD90 compared to Untreated” value was “increased”. Moreover, in the data set with human heart organoids [6], the “action potential amplitude compared to Untreated” value is recorded as “decreased”. Besides, the “action potential frequency compared to Untreated” value in the data set on human heart organoids [6] is “decreased frequencies”.
`CCN(CC)c1ccc(C=O)cc1` [DEAB, 4-Diethylaminobenzaldehyde]: in the data set on human heart organoids [5] (setting [7]), the “MYL3+ area relative to Untreated organoids” value turned out to be 0.35 fold and the “NR2F2+ area relative to Untreated organoids” value is reported as 0.42 fold.

For the origin of these results see patent publication US20260275292A1, “MATURATION MEDIUM COMPOSITIONS AND METHODS FOR HUMAN HEART ORGANOID MATURATION” (Board of Trustees of Michigan State University, priority 2022, published 2026).
